In this assay the target is T1, human NaV1.8 (Homo sapiens, UniProt Q9Y5Y9).
T1 construct: The following NaV1.8 recombinant cell line was used for recordings: HEK-NaV1.8 (NM 006514.1); expressed in transfected cells; host or cells: HEK (recombinant cell line HEK-NaV1.8)
Put plainly: Electrophysiology: automated whole-cell voltage-clamp (patch clamp, Qube384) recordings of sodium currents in HEK-NaV1.8 cells. Type of assay: cell-based. Conditions: potency data either taken from inactivated or resting state, read-out: Potency category (human NaV1.8 IC50). In short, it runs like this: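 Automated whole-cell patch clamp at room temperature on HEK cells expressing human NaV1.8, with 0.3% DMSO vehicle controls. State-dependent protocol from −120 mV tested resting (P1) and half-inactivated (P2, 4 s at V1/2) channels, plus 40-pulse trains at 10 and 20 Hz. Values after ~12 min compound exposure were normalised to baseline and corrected for vehicle run-down; IC50 from a 4-parameter logistic fit, taken from inactivated or resting state.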
In general terms: Patch clamp records ionic current or voltage across a cell membrane.

T1 sequence (Q9Y5Y9 whole entry): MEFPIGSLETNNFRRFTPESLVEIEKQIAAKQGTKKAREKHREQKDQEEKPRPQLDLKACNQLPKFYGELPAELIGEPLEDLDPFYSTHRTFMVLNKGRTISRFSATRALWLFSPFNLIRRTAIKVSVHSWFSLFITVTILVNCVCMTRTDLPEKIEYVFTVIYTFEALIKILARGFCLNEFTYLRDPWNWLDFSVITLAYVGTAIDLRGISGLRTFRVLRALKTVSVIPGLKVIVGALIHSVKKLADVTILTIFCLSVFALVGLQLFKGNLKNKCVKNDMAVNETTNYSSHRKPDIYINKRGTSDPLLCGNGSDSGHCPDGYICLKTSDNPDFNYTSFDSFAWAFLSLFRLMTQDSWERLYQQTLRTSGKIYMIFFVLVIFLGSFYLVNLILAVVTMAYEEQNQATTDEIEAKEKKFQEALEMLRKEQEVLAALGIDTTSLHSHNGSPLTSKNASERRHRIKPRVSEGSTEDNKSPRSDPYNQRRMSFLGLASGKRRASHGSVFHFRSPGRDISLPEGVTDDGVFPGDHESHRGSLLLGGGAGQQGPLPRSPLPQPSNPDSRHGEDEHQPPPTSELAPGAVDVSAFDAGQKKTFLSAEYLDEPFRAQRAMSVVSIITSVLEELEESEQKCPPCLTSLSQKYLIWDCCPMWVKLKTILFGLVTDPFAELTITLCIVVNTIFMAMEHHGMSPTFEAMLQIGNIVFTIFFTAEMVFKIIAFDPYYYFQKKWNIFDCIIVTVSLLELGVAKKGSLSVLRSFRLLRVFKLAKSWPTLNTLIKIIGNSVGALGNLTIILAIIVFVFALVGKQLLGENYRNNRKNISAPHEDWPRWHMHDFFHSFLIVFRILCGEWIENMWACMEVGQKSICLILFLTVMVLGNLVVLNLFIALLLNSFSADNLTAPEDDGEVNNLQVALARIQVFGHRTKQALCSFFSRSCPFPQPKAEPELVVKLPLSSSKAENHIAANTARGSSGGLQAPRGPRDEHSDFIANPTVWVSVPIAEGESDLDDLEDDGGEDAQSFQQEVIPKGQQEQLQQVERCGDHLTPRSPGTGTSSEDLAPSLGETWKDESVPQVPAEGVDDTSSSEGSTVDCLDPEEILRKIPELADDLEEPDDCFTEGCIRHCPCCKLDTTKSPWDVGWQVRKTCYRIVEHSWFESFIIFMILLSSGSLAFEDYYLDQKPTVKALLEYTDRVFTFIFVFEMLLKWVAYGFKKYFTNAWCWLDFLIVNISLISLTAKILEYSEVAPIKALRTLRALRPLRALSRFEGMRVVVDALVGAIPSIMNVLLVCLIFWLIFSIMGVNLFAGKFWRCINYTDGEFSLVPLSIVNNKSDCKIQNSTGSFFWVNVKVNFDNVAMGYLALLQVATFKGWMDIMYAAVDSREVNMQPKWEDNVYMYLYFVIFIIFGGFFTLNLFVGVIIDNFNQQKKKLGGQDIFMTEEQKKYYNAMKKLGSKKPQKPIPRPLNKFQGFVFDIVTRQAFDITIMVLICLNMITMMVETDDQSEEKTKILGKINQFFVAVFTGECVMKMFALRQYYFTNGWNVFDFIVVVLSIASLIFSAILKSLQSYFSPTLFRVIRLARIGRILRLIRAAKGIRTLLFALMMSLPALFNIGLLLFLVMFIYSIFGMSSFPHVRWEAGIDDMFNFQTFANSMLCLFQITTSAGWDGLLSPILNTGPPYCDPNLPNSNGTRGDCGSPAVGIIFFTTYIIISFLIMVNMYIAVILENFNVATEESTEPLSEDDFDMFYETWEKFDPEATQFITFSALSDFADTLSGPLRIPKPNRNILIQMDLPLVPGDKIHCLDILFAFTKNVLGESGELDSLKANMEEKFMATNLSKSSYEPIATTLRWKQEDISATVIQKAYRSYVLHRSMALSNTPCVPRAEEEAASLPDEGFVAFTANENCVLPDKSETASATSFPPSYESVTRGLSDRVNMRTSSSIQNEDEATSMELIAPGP
T1 sequence (Q9NY72 23-215 partner): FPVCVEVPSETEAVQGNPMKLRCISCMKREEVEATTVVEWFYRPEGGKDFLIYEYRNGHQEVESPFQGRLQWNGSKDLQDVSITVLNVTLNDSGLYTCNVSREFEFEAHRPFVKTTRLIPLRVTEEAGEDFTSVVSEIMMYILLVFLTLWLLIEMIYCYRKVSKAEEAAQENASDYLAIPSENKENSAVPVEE

In general, IC50 refers to the concentration that inhibits the measured activity by half. Take `Cc1c(C(C)(F)F)nn(C[C@@H]2CC[C@H]2C(F)(F)F)c1C(=O)Nc1ccnc(C(N)=O)c1` (single isomer, unassigned) [SC-315a]: the half-maximal inhibitory concentration (IC50) is not above 100 nM.

For the molecule `Cc1c(C(C)(F)F)nn(CC2(C(F)(F)F)CC(F)(F)C2)c1C(=O)Nc1ccnc(C(N)=O)c1` [SC-299, 4-(1-((3,3-difluoro-1-(trifluoromethyl)cyclobutyl)methyl)-3-(1,1-difluoroethyl)-4-methyl-1H-pyrazole-5-ca±oxamido)picolinamide], the IC50 was not above 100 nM.

Take `NC(=O)c1cc(NC(=O)c2c(C(F)F)c(C3CC3)nn2CC2CCC(F)(F)C2)ccn1` (centres unmarked) [SC-216, 4-(3-cyclopropyl-1-((3,3-difluorocyclopentyl)methyl)-4-(difluoromethyl)-1H-pyrazole-5-carboxamido)picolinamide]: the IC50 is not above 100 nM.

With `CS(=O)(=O)c1cccc(NC(=O)c2c(C(F)(F)F)cnn2CC2CCCCC2)c1` [SC-26, 2-(cyclohexylmethyl)-N-(3-methylsulfonylphenyl)-4-(trifluoromethyl)pyrazole-3-carboxamide], the IC50 is not above 100 nM.

For `NC(=O)c1cc(NC(=O)c2c(Cl)c(C(F)(F)F)nn2CC2CCC(F)(F)C2)ccn1` (single isomer, unassigned) [SC-160b], the IC50 is not above 100 nM.

Take `CS(=O)(=O)c1cccc(NC(=O)c2ccnn2CC2CCCCC2)c1` [SC-226, 1-(cyclohexylmethyl)-N-(3-(methyIsulfonyl)phenyl)-1H-pyrazole-5-carboxamide]: the 50% inhibitory concentration (IC50) fell in the range of 1000 to 10000 nM.

In the case of `COc1c(C(C)(F)F)nn(CC2CCC(F)(F)C2)c1C(=O)Nc1ccnc(C(N)=O)c1` (single isomer, unassigned) [SC-271b], the IC50 was 100 to 1000 nM.

Take `Cc1c(OC(F)F)nn(CC2CC(F)(F)C2)c1C(=O)Nc1ccnc(S(C)(=O)=O)c1` [SC-323, 1-((3,3-difluorocyclobutyl)methyl)-3-(difluoromethoxy)-4-methyl-N-(2-(methylsulfonyl)pyridin-4-yl)-1H-pyrazole-5-carboxamide]: the IC50 was 100 to 1000 nM.

For `NC(=O)c1cc(NC(=O)c2c(C(F)(F)F)c(OCC3CC3)nn2CC2CCC(F)(F)C2)ccn1` (racemic) [SC-157, 4-(3-(cyclopropylmethoxy)-1-((3,3-difluorocyclopentyl)methyl)-4-(trifluoromethyl)-1H-pyrazole-5-ca±oxamido)picolinamide], the half-inhibitory concentration (IC50) was not above 100 nM.

Turning to `Cc1c(C(C)(F)F)nn(CC2C[C@@H](F)[C@@H](F)C2)c1C(=O)Nc1ccnc(S(C)(=O)=O)c1` (some centres unmarked) [SC-224, 1-((3,4-difluorocyclopentyl)methyl)-3-(1,1-difluoroethyl)-4-methyl-N-(2-(methylsulfonyl)pyridin-4-yl)-1H-pyrazole-5-carboxamide], the IC50 fell in the range of 100 to 1000 nM.

As for `Cc1c(C(C)(F)F)nn(CC2CC(F)(F)C2)c1C(=O)Nc1ccnc(C(N)=O)c1` [SC-161, 4-(1-((3,3-difluorocyclobutyl)methyl)-3-(1,1-difluoroethyl)-4-methyl-1H-pyrazole-5-carboxamido)picolinamide], the half-inhibitory concentration (IC50) is not above 100 nM.

For the molecule `Cc1c(C(C)(F)F)nn(C[C@@H]2CC[C@H]2C(F)(F)F)c1C(=O)Nc1ccnc(C(N)=O)c1` (single isomer, unassigned) [SC-315b], the 50% inhibitory concentration (IC50) was not above 100 nM.

Regarding `NC(=O)c1cc(NC(=O)c2c(C(F)(F)F)c(C3CC3)nn2CC2CCC2(F)F)ccn1` (single isomer, unassigned) [SC-154a, 4-(3-cyclopropyl-1-((2,2-difluorocyclobutyl)methyl)-4-(trifluoromethyl)-1H-pyrazole-5-carboxamido)picolinamide], the 50% inhibitory concentration (IC50) was not above 100 nM.

On to `Cc1c(C(C)(F)F)nn(CC2CC(F)(F)C2)c1C(=O)Nc1ccnc(S(N)(=O)=O)c1` [SC-215, 1-((3,3-difluorocyclobutyl)methyl)-3-(1,1-difluoroethyl)-4-methyl-N-(2-sulfamoylpyridin-4-yl)-lH-pyrazole-5-carboxamide], for which the 50% inhibitory concentration (IC50) was not above 100 nM.

Consider `NS(=O)(=O)c1cccc(NC(=O)c2c(C(F)(F)F)c(C3CC3)nn2CC2CCCCO2)c1` (centres unmarked) [SC-264, 3-cyclopropyl-N-(3-sulfamoylphenyl)-1-((tetrahydro-2H-pyran-2-yl)methyl)-4-(trifluoromethyl)-1H-pyrazole-5-carboxamide], for which the concentration for half-maximal inhibition (IC50) is not above 100 nM.

As for `NS(=O)(=O)c1cccc(NC(=O)c2c(C(F)(F)F)c(C3CC3)nn2CC2CCC(F)(F)CC2)c1` [SC-230, 3-cyclopropyl-1-((4,4-difluorocyclohexyl)methyl)-N-(3-sulfamoylphenyl)-4-(trifluoromethyl)-lH-pyrazole-5-carboxamide], the IC50 is not above 100 nM.

Consider `CS(=O)(=O)n1cc(NC(=O)c2c(C(F)(F)F)cnn2CC2CCCCC2)cn1` [SC-36, 2-(cyclohexylmethyl)-N-(1-methylsulfonylpyrazol-4-yl)-4-(trifluoromethyl)pyrazole-3-carboxamide], for which the IC50 was 100 to 1000 nM.

On to `Cc1c(C(C)(F)F)nn(CC2CC(F)(F)CC2C(F)(F)F)c1C(=O)Nc1ccnc(C(N)=O)c1` (racemic) [SC-217, 4-(1-((4,4-difluoro-2-(trifluoromethyl)cyclopentyl)methyl)-3-(1,1-difluoroethyl)-4-methyl-1H-pyrazole-5-carboxamido)picolinamide], for which the IC50 was not above 100 nM.

In the case of `Cc1c(C(C)(F)F)nn(C[C@H]2C[C@@H](F)C2)c1C(=O)Nc1ccnc(C(N)=O)c1` [SC-301, 4-(3-(1,1-difluoroethyl)-1-((3-fluorocyclobutyl)methyl)-4-methyl-1H-pyrazole-5-carboxamido)picolinamide], the IC50 was in the range of 100 to 1000 nM.

`CC(C)c1nn(CC2CC(F)(F)C2)c(C(=O)Nc2ccnc(C(N)=O)c2)c1C(F)(F)F` [SC-170, 4-(1-((3,3-difluorocyclobutyl)methyl)-3-isopropyl-4-(trifluoromethyl)-1H-pyrazole-5-carboxamido)picolinamide]: the half-maximal inhibitory concentration (IC50) is not above 100 nM.

In the case of `CS(=O)(=O)c1cccc(NC(=O)c2c(F)cnn2CC2CCCCC2)c1` [SC-08, 2-(cyclohexylmethyl)-4-fluoro-N-(3-methylsulfonylphenyl)pyrazole-3-carboxamide], the concentration for half-maximal inhibition (IC50) is 1000 to 10000 nM.

For the molecule `Cc1nn(CC2CCC(F)(F)CC2)c(C(=O)Nc2ccnc(C(N)=O)c2)c1C(F)(F)F` [SC-84, 4-(1-((4,4-difluorocyclohexyl)methyl)-3-methyl-4-(trifluoromethyl)-1H-pyrazole-5-carboxamido)picolinamide], the half-inhibitory concentration (IC50) is not above 100 nM.

Regarding `CS(=O)(=O)c1cc(NC(=O)c2c(C(F)(F)F)c(C3CC3)nn2CC2CCC(F)(F)C2)ccn1` (single isomer, unassigned) [SC-277b], the IC50 was not above 100 nM.

As for `Cc1c(OC(F)(F)F)nn(CC2CC(F)(F)C2)c1C(=O)Nc1ccnc(C(N)=O)c1` [SC-318, 4-(1-((3,3-difluorocyclobutyl)methyl)-4-methyl-3-(trifluoromethoxy)-1H-pyrazole-5-carboxamido)picolinamide], the IC50 was 100 to 1000 nM.

On to `COc1c(C(F)(F)F)nn(CC2CCC(F)(F)C2)c1C(=O)Nc1ccnc(C(N)=O)c1` (centres unmarked) [SC-269, 4-(1-((3,3-difluorocyclopentyl)methyl)-4-methoxy-3-(trifluoromethyl)-lH-pyrazole-5-carboxamido)picolinamide], for which the 50% inhibitory concentration (IC50) lay in the range of 100 to 1000 nM.

In the case of `CS(=O)(=O)c1cccc(NC(=O)c2c(C(F)F)cnn2CC2CCCCC2)c1` [SC-229, 1-(cyclohexylmethyl)-4-(difluoromethyl)-N-(3-(methylsulfonyl)phenyl)-1H-pyrazole-5-carboxamide], the IC50 is not above 100 nM.

These data come from patent US11999699B2, “Substituted pyrazole amides” (GRUENENTHAL GMBH, priority 2021, dated 2024).
